# Laboratory results reported in patent US20090048190A1, “Antiviral activity and resolution of 2-hydroxymethyl-5(5-fluorocytosin-1-yl)-1,3-oxathiolane” (priority 1990, published 2009).
# Read-outs that look alike come from different tables or passages of the source.
# Assays:
# [1] = system: other cell lines
# [2] = system: HIV-1 (strain LAV); assay type: cell-based
# Excerpt: It is often desirable to screen a number of racemic mixtures of nucleosides as a preliminary step to determine which warrant further resolution into enantiomerically enriched components and further evaluation of antiviral activity. The ability of nucleosides to inhibit HIV can be measured by various experimental techniques. The technique used herein, and described in detail below, measures the inhibition of viral replication in phytohemagglutinin (PHA) stimulated human peripheral blood mononuclear (PBM) cells infected with HIV-1 (strain LAV). The amount of virus produced is determined by measuring the virus-coded reverse transcriptase enzyme. The amount of enzyme produced is proportional to the amount of virus produced.
# A. Three-day-old phytohemagglutinin-stimulated PBM cells (10^6 cells/ml) from hepatitis B and HIV-1 seronegative healthy donors were infected with HIV-1 (strain LAV) at a concentration of about 100 times the 50% tissue culture infectious dose (TICD 50) per ml and cultured in the presence and absence of various concentrations of antiviral compounds.
# B. Approximately one hour after infection, the medium, with the compound to be tested (2 times the final concentration in medium) or without compound, was added to the flasks (5 ml; final volume 10 ml). AZT was used as a positive control.
# C. The cells were exposed to the virus (about 2×10^5 dpm/ml, as determined by reverse transcriptase assay) and then placed in a CO2 incubator. HIV-1 (strain LAV) was obtained from the Center for Disease Control, Atlanta, Ga. The methods used for culturing the PBM cells, harvesting the virus and determining the reverse transcriptase activity were those described by McDougal et al. (J. Immun. Meth. 76, 171-183, 1985) and Spira et al. (J. Clin. Meth. 25, 97-99, 1987), except that fungizone was not included in the medium (see Schinazi, et al., Antimicrob. Agents Chemother. 32, 1784-1787 (1988); Id., 34:1061-1067 (1990)).
# D. On day 6, the cells and supernatant were transferred to a 15 ml tube and centrifuged at about 900 g for 10 minutes. Five ml of supernatant were removed and the virus was concentrated by centrifugation at 40,000 rpm for 30 minutes (Beckman 70.1 Ti rotor). The solubilized virus pellet was processed for determination of the levels of reverse transcriptase. Results are expressed in dpm/ml of sampled supernatant. Virus from smaller volumes of supernatant (1 ml) can also be concentrated by centrifugation prior to solubilization and determination of reverse transcriptase levels.
# [3] = system: HIV-2; assay: Antiretroviral activity in different cell systems, HIV-2; assay type: cell-based; settings: PBMC (ROD2)
# Method: Cell lines were obtained from either human donors, AIDS Research and Reference Reagent Program, NIH, Rockville, Md., ATCC, or the Red Cross. The CEM thymidine kinase deficient cells were prepared by sequential passage of CEM cells in the presence of 5-bromo-2′-deoxyuridine.
# [4] = system: uninfected human PBM cells
# Excerpt: The cells were counted after 6 days using a hemacytometer and the trypan blue exclusion method, as described by Schinazi et al., Antimicrobial Agents and Chemotherapy, 22(3), 499 (1982).
# [5] = system: HIV; assay: microbe, parasite or virus in culture; assay type: cell-based; settings: MT4 system
# [6] = Pharmacokinetics after intravenous administration to rats
# [7] = CSF/serum ratio in rhesus monkeys; assay type: in vivo; settings: 33.3 mg/kg, one hour after administration
# [8] = system: HepG2 cells; settings: 10 μM [3H]-(±)-FTC
# [9] = system: Vero cells
# [10] = system: FIV; assay: Antiretroviral activity in different cell systems, FIV; assay type: cell-based; settings: CrFK (61E)
# [11] = system: CEM cells
# [12] = system: human PBM cells; settings: 10 μM radiolabeled FTC
# Method: All studies were conducted in duplicate. […] Cells were exposed to the drug for 2, 6, 12, and 24 hours. At these timepoints, the medium was removed and the cells were washed two times with cold Hank's balanced salt solution. Extraction was performed with addition of 0.2 ml of 60% cold methanol/water and stored overnight at −70° C. The following morning, the suspensions were centrifuged and extractions were repeated two times for 0.5 hours at −70° C. The total supernatants (0.6 ml) were lyophilized to dryness. The residues were resuspended in 250 μl of water and aliquots of between 50 and 100 μl were analyzed by HPLC. Quantitation of intracellular parent drug and metabolic derivatives were conducted by HPLC.
smiles,measurement,setting,value
"Nc1nc(=O)n([C@@H]2CS[C@H](CO)O2)cc1F (racemic) [(±)-FTC, (±)-β-D,L-2-hydroxymethyl-5-(5-fluorocytosin-1-yl)-1,3-oxathiolane]",nontoxic at concentrations up to,[1],up to 200 μM
same,% Inhibition (Corrected),[2]; 0.0001 μM,26.6%
same,DPM/ml,[2]; 0.0001 μM,"73,755 DPM/ml"
same,% Inhibition (Corrected),[2]; 0.005 μM,16.3%
same,DPM/ml,[2]; 0.005 μM,"83,005 DPM/ml"
same,% Inhibition (Corrected),[2]; 0.01 μM,41.3%
same,DPM/ml,[2]; 0.01 μM,"60,465 DPM/ml"
same,% Inhibition (Corrected),[2]; 0.05 μM,70.4%
same,DPM/ml,[2]; 0.05 μM,"34,120 DPM/ml"
same,% Inhibition (Corrected),[2]; 0.1 μM,92.4%
same,DPM/ml,[2]; 0.1 μM,"14,160 DPM/ml"
same,% Inhibition (Corrected),[2]; 0.5 μM,88.1%
same,DPM/ml,[2]; 0.5 μM,"18,095 DPM/ml"
same,% Inhibition (Corrected),[2]; 1 μM,99.7%
same,DPM/ml,[2]; 1 μM,"7,555 DPM/ml"
same,% Inhibition (Corrected),[2]; 5 μM,99.3%
same,DPM/ml,[2]; 5 μM,"7,940 DPM/ml"
same,% Inhibition (Corrected),[2]; 10 μM,101.7%
same,DPM/ml,[2]; 10 μM,"5,810 DPM/ml"
same,EC50,"[2]; PBM cells, read-out: activity in PBM cells",~10 nM
same,EC50,"[2]; enantiomers resolved by HPLC (Example 4), Table 4, read-out: EC50",18 nM
same,EC50,"[2]; enantiomers resolved by method of Example 3, FIG. 6, read-out: EC50",17 nM
same,EC50,"[2]; human PBM cells, HIV-1 strain LAV, Table 3, read-out: Antiviral EC50",10 nM
same,EC50,[3],3.8 nM
same,IC50,[4],> 100000 nM
same,IC50,[5],520 nM
same,CLT,[6]; 10 mg/kg,16.5 mL/min/kg
same,CLT,[6]; 50 mg/kg,14.6 mL/min/kg
same,MRT,[6]; 50 mg/kg,48 min
same,CLT,[6]; 100 mg/kg,13.8 mL/min/kg
same,ability to cross the blood-brain barrier,[7],significant amount of active compound passes through the blood-brain barrier
same,uptake by HepG2 cells,[8],taken up by HepG2 cells in large amounts
same,toxicity,[9],> 100 µM
same,VSS,"I.V., 33.3 mg/kg, individual monkeys (RUh, RMi, RJd)",2.00 L/kg
same,F (bioavailability),"P.O., 33.3 mg/kg, individual monkeys (RUh, RMi, RJd)",80%
same,plasma terminal half life,"rhesus monkeys, mean of oral and I.V. administration",approximately 1.34±0.18
same,EC50,[10],≤ 1000 nM
same,toxicity,[11],> 100 µM
same,uptake in human lymphocytes,[12],readily taken up
